According to article PMC4493460, “Increasing the Biological Stability Profile of a New Chemical Entity, UPEI-104, and Potential Use as a Neuroprotectant Against Reperfusion-Injury” (Brain Sciences, 2015):
“Also recorded” adds a separate entry of the source. Read-outs that look alike come from different tables or passages of the source. Each block holds one compound with its values, some of them ahead of it.

How the values were obtained:
[1] = set-up: method as in PMID 21172313; conditions: cited from earlier work
[2] = Stability in human plasma (Cerep, HPLC-MS/MS); assay type: in vitro ADME; conditions: 1.0E−06 M, 37 °C; for half-life at 1 µM: human, plasma, 0-120 min
Procedure: The detection method was HPLC-MS/MS. At the end of incubation at each of the time points, acetonitrile was added to the incubation mixture followed by centrifugation. Samples were analyzed by HPLC-MS/MS and peak areas were recorded for each analyte. The area of precursor compound remaining after each of the time points relative to the amount remaining at time zero, expressed as percent, was calculated. […] Further experimental detail may be found in [30].
Further experimental detail may be found in [32].

in vitro = conditions: for microsomal CLint at 100 nM / % Compound Remaining, 1st / % Compound Remaining, 2nd / % Compound Remaining, Mean / half-life at 100 nM: human, microsomes; for % Compound Remaining, 1st / % Compound Remaining, 2nd / % Compound Remaining, Mean: 100 nM
Procedure: Briefly, incubation was performed at 37 °C for times between 0 and 60 min as indicated. The detection method was HPLC-MS/MS. Intrinsic clearance from microsomes (S9, cryopreserved hepatocytes, recombinant CYP, recombinant UGT) was assayed. Metabolic stability, expressed as percent of the parent compound remaining, was calculated by comparing the peak area of the compound at the time point relative to that at time 0. The half-life (T1/2) was estimated from the slope of the initial linear range of the logarithmic curve of compound remaining (%) vs. time, assuming the first-order kinetics.
A solution of each test compound (1000 ng/mL or 10 μM) was prepared as described above and infused into the TSQ Quantum source via syringe pump at a constant rate. Full scan MS analysis was conducted and total ion current chromatograms and corresponding mass spectra were generated for each test compound in both positive and negative ionization modes. The precursor ions for MS/MS were selected from either the positive or the negative mass spectrum, as a function of the respective ion abundance. In addition, product ion MS/MS analysis was performed in order to determine the appropriate selected fragmentation reaction for use in quantitative analysis. The final reaction monitoring parameters were chosen to maximize the ability to quantify the test compound when present within a complex mixture of components. Following identification of the specific SRM transition to be used for each test compound, the detection parameters were optimized using the automated protocol in the TSQ Quantum Compound Optimization Workspace software package (Thermo Scientific, MA, USA). Finally, the chromatographic conditions to be used for LC-MS analysis were identified by injection and separation of the analyte on a suitable LC column and adjustment of the gradient conditions as necessary. Further experimental detail may be found in [32].
Mobile Phase B: 6 mM ammonium formate/3 mM formic acid in water/acetonitryl (ACN; 1/9, v/v). Column: Hypersil GOLD DASH HTS, 2.1 × 20 mm, 3 micron (Thermo Scientific, MA, USA; see Table 1 for details).

[3] = test system: infarct volume following tMCAO; set-up: method as in PMID 22277933; conditions: cited from earlier work
[4] = set-up: method as in PMID 22277933; conditions: animals injected i.v.; immediately, as early as 1 min after injection; previous work; cited from earlier work
NADPH oxidase = test system: NADPH oxidase; set-up: method as in PMID 22277933, PMID 18511205; conditions: compared with apocynin alone; cited from earlier work
[5] = test system: infarct volume following tMCAO; experiment: Transient middle cerebral artery occlusion (tMCAO) ischemia-reperfusion injury, infarct volume by TTC staining; assay type: in vivo, Sprague-Dawley rats; conditions: rats, 30 min occlusion, 5.5 h reperfusion
Procedure: All surgical procedures described below were approved by the University of Prince Edward Island Animal Care Committee and were in compliance with the requirements of the Canadian Council on Animal Care. Our surgical protocol has been described previously. Briefly, rats were anaesthetized with sodium thiobutabarbital (Inactin, Sigma Aldrich, St. Louis, MO, USA; 100 mg/kg, intraperitoneal; i.p.) and kept warm on a heating pad maintained at 37 ± 1 °C. A venous cannula was inserted into the right femoral vein to allow for all drug injections and supplemental anaesthesia, if required. Rats were then transferred to a stereotaxic frame to allow for surgical access to the right middle cerebral artery (MCA). As detailed in our previous publication, we used a 3-point occlusion of the MCA by inserting suture under the vessel and applying pressure, by gently lifting the sutures, to occlude flow by 100% (as confirmed by laser Doppler flowmetry). The period of occlusion lasted for 30 min, followed by a 5.5 h period of reperfusion, which was accomplished by removal of these sutures (transient ischemia model, tMCAO). […] Sections were then scanned (both sides) the next day, and infarct area was measured using imaging software (Image J; Scion Corporation, Frederick, MD, USA). […] Data was analyzed by an investigator blinded to the treatment groups. […]

infarct volume, MCAO = test system: infarct volume, MCAO; set-up: method as in PMID 1299626, PMID 19417757, PMID 21946070, PMID 19175604, PMID 17697529; conditions: cited from earlier work
global ischemia = test system: global ischemia; set-up: method as in PMID 16650838; conditions: gerbils, given 5 min following 5 min of global ischemia, assessed four days later; cited from earlier work

Structure (SMILES): O=C(O)CCCCC1CCSS1 (stereo not drawn) [LA, α-Lipoic acid]
Neuroprotection ([1]; 5 mg/kg (most effective dose), administered just prior to the beginning of reperfusion): did not result in significant neuroprotection | Neuroprotection ([1]; 5 mg/kg, administered prior to both occlusion and reperfusion): produced neuroprotection

half-life at 1 µM ([2]; read-out: Half-Life, 1st): 7.2 min | half-life at 1 µM ([2]; read-out: Half-Life, 2nd): 7.2 min | half-life at 1 µM ([2]; read-out: Half-Life, Mean): 7 min
Structure (SMILES): CC(C)[N+](C)(CCOC(=O)C1c2ccccc2Oc2ccccc21)C(C)C [Propantheline, reference compound]

half-life at 1 µM ([2]; read-out: Half-Life, 1st): < 30 min | half-life at 1 µM ([2]; read-out: Half-Life, 2nd): < 30 min | half-life at 1 µM ([2]; read-out: Half-Life, Mean): < 30 min
Structure (SMILES): CCCOc1cc(N)ccc1C(=O)OCCN(CC)CC [Propoxycaine, reference compound]

% Compound Remaining, 1st ([2]; incubation 0 min): 100.0% | % Compound Remaining, 2nd ([2]; incubation 0 min): 100.0% | % Compound Remaining, Mean ([2]; incubation 0 min): 100% | % Compound Remaining, 1st ([2]; incubation 30 min): 92.7% | % Compound Remaining, 2nd ([2]; incubation 30 min): 126.6% | % Compound Remaining, Mean ([2]; incubation 30 min): 110% | % Compound Remaining, 1st ([2]; incubation 60 min): 100.7% | % Compound Remaining, 2nd ([2]; incubation 60 min): 116.0% | % Compound Remaining, Mean ([2]; incubation 60 min): 108% | % Compound Remaining, 1st ([2]; incubation 90 min): 99.5% | % Compound Remaining, 2nd ([2]; incubation 90 min): 111.2% | % Compound Remaining, Mean ([2]; incubation 90 min): 105% | % Compound Remaining, 1st ([2]; incubation 120 min): 109.9% | % Compound Remaining, 2nd ([2]; incubation 120 min): 140.1% | % Compound Remaining, Mean ([2]; incubation 120 min): 125% | half-life at 1 µM ([2]; read-out: Half-Life, 1st): > 120 min | half-life at 1 µM ([2]; read-out: Half-Life, 2nd): > 120 min | half-life at 1 µM ([2]; read-out: Half-Life, Mean): > 120 min | microsomal CLint at 100 nM (in vitro): 6030 µL/min/mg | % Compound Remaining, 1st (in vitro; 0 h): 100.0% | % Compound Remaining, 2nd (in vitro; 0 h): 100.0% | % Compound Remaining, Mean (in vitro; 0 h): 100% | % Compound Remaining, 1st (in vitro; 0.25 h): 0.0% | % Compound Remaining, 2nd (in vitro; 0.25 h): 0.0% | % Compound Remaining, Mean (in vitro; 0.25 h): 0% | % Compound Remaining, 1st (in vitro; 0.5 h): 0.0% | % Compound Remaining, 2nd (in vitro; 0.5 h): 0.0% | % Compound Remaining, Mean (in vitro; 0.5 h): 0% | % Compound Remaining, 1st (in vitro; 0.75 h): 0.0% | % Compound Remaining, 2nd (in vitro; 0.75 h): 0.0% | % Compound Remaining, Mean (in vitro; 0.75 h): 0% | % Compound Remaining, 1st (in vitro; 1 h): 0.0% | % Compound Remaining, 2nd (in vitro; 1 h): 0.0% | % Compound Remaining, Mean (in vitro; 1 h): 0% | half-life at 100 nM (in vitro; 1st): 1.1 min | half-life at 100 nM (in vitro; 2nd): < 15 min | half-life at 100 nM (in vitro; Mean): ~1 min
Structure (SMILES): COc1cc(C(C)=O)ccc1OC(=O)CCCCC1CCSS1 (centres unmarked) [UPEI-100]
Flags (detection of test compound in the assay matrix) (in vitro): not detected in the assay at any time point | Dose at which infarct volume was reduced ([3]; same in vivo model of reperfusion-injury, previously observed): 0.1 mg/kg | Dose for equivalent neuroprotection compared to each parent compound (lipoic acid, apocynin), fold lower ([3]; tMCAO, previous work): 100 fold | Detection in tissue samples / central nervous system following intravenous injection [4]: undetectable; also recorded: unable to detect; also recorded: could not be detected | Inhibition of NADPH oxidase (NADPH oxidase): inhibited NADPH oxidase

% Compound Remaining, 1st ([2]; incubation 0 min): 100.0% | % Compound Remaining, 2nd ([2]; incubation 0 min): 100.0% | % Compound Remaining, Mean ([2]; incubation 0 min): 100% | % Compound Remaining, 1st ([2]; incubation 30 min): 89.3% | % Compound Remaining, 2nd ([2]; incubation 30 min): 112.0% | % Compound Remaining, Mean ([2]; incubation 30 min): 101% | % Compound Remaining, 1st ([2]; incubation 60 min): 95.5% | % Compound Remaining, 2nd ([2]; incubation 60 min): 98.6% | % Compound Remaining, Mean ([2]; incubation 60 min): 97% | % Compound Remaining, 1st ([2]; incubation 90 min): 82.9% | % Compound Remaining, 2nd ([2]; incubation 90 min): 76.4% | % Compound Remaining, Mean ([2]; incubation 90 min): 80% | % Compound Remaining, 1st ([2]; incubation 120 min): 77.2% | % Compound Remaining, 2nd ([2]; incubation 120 min): 90.1% | % Compound Remaining, Mean ([2]; incubation 120 min): 84% | half-life at 1 µM ([2]; read-out: Half-Life, 1st): 352 min | half-life at 1 µM ([2]; read-out: Half-Life, 2nd): 351 min | half-life at 1 µM ([2]; read-out: Half-Life, Mean): > 120 min | microsomal CLint at 100 nM (in vitro): 963 µL/min/mg | half-life at 100 nM (in vitro; 1st): 7.3 min | half-life at 100 nM (in vitro; 2nd): 7.1 min | half-life at 100 nM (in vitro; Mean): ~7 min
Structure (SMILES): COc1cc(C(C)=O)ccc1OCCCCCC1CCSS1 (centres unmarked) [UPEI-104]
Infarct volume vs vehicle group ([5]; 0.1 mg/kg i.v. 30 min prior to MCA occlusion, p < 0.05): significantly lower | Effect on infarct volume as a function of dose ([5]; 0.001–0.1 mg/kg i.v. 30 min prior to MCA occlusion): dose-dependent reduction in infarct volume

Structure (SMILES): COc1cc(C(C)=O)ccc1O [apocynin, 4-hydroxy-3-methoxyacetophenone]
Infarct volume (infarct volume, MCAO; administered during occlusion of the middle cerebral artery): attenuation of infarct volume | Infarct volume benefit (infarct volume, MCAO; administration delayed following the onset of reperfusion): benefits were lost | Neuronal degeneration, neuronal death and microglial activation (global ischemia): decreased neuronal degeneration and delayed neuronal death and microglial activation
